Assays:
[1] = Stability test in buffer (pH 7.4); assay type: physicochemical; conditions: 100 mM potassium phosphate buffer (pH 7.4):acetonitrile 7:3, 37° C.
Description: In the tables, Buf. remaining rate was determined by stability test in buffer (pH 7.4) as described below. A sample dissolved in DMSO was mixed with a mixed solution of 100 mM potassium phosphate buffer and acetonitrile in the ratio of 7:3 (v/v). The mixture was incubated at 37° C. for 0, 10, and 60 minutes, and acetonitrile containing formic acid (final concentration: 0.1%) was added thereto. The solution was centrifuged, and the concentration of the sample (unchanged form) in the supernatant was determined by high performance liquid chromatography/mass spectrometry (LC/MS). Based on the data obtained, Buf. remaining rate (%) was calculated according to the following equation. Buf. remaining rate(%)=amount of sample 0, 10, or 60 minutes after incubation/amount of sample at zero time after incubation×100

[2] = biological target: T1, Microsomal triglyceride transfer protein (MTP) from human small intestine microsome (Homo sapiens, UniProt P55157); assay: Inhibition test of interliposomal triglyceride (TG) transfer activity by MTP; assay type: biochemical; conditions: purified MTP from human small intestine microsome, 37° C., 1.5 hours
T1 construct: Human small intestine microsome was dialyzed against 10 mM phosphate buffer; tissue Tissue Transforming Technologies, Inc; host or cells: human small intestine microsome
Summary of the method: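 DEAE-purified human small intestine MTP (50 μL of 20 μg/mL) incubated 1.5 hours at 37° C with ^14C-triolein donor and unlabelled acceptor SUV liposomes in pH 7.4 Tris buffer with 0.5% BSA. Donor removed on DEAE cellulose; acceptor radioactivity counted, blank-corrected against DMSO control, giving percent inhibition and IC50.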

[3] = Metabolic stability test in liver S9; assay type: in vitro ADME; conditions: human liver S9 2 mg protein/mL, 37° C.
Description: Human liver S9 (final concentration: 2 mg protein/mL), was suspended in 100 mM potassium phosphate buffer (pH 7.4, containing β-nicotinamide adenine dinucleotide phosphate: 1.3 mM, D-glucose-6-phosphate: 3.3 mM, magnesium chloride: 3.3 mM, glucose-6-phosphate dehydrogenase: 0.4 U/mL). The suspension was mixed with a solution of a sample dissolved in DMSO. The solution was incubated at 37° C. for 0, 10 and 60 minutes, and an acetonitrile containing formic acid (final concentration: 0.1%) was added thereto. The solutions were centrifuged, and the concentration of the sample (unchanged form) in the supernatant was determined by high performance liquid chromatography/mass spectrometry (LC/MS). Based on the data obtained, remaining rate (%) was calculated according to the following equation. Remaining rate(%)=amount of sample 0, 10, or 60 minutes after incubation/amount of sample at zero time after incubation×100

[4] = Metabolic stability test in plasma; assay type: in vitro ADME; conditions: 37° C.
Description: A sample dissolved in DMSO was added to plasma of human or animal species (mouse and hamster). The solutions were incubated at 37° C. for 0, 10 and 60 minutes, and acetonitrile containing formic acid (final concentration: 0.1%) was added thereto. The solutions were centrifuged, and the concentration of the sample (unchanged form) in the supernatant was determined by high performance liquid chromatography/mass spectrometry (LC/MS). Based on the data obtained, the remaining rate (%) was calculated according to the following equation. Remaining rate(%)=amount of sample 0, 10, or 60 minutes after incubation/amount of sample at zero time after incubation×100 With respect to the compounds obtained in Working Examples according to the present invention (Compounds 1-1 to 1-115, 2-1, 3-1, 3-2, and 4-1 to 4-4), the results of the remaining rate in human liver S9 and plasma are shown in Tables 28 to 32.

T1 sequence (P55157 19-894): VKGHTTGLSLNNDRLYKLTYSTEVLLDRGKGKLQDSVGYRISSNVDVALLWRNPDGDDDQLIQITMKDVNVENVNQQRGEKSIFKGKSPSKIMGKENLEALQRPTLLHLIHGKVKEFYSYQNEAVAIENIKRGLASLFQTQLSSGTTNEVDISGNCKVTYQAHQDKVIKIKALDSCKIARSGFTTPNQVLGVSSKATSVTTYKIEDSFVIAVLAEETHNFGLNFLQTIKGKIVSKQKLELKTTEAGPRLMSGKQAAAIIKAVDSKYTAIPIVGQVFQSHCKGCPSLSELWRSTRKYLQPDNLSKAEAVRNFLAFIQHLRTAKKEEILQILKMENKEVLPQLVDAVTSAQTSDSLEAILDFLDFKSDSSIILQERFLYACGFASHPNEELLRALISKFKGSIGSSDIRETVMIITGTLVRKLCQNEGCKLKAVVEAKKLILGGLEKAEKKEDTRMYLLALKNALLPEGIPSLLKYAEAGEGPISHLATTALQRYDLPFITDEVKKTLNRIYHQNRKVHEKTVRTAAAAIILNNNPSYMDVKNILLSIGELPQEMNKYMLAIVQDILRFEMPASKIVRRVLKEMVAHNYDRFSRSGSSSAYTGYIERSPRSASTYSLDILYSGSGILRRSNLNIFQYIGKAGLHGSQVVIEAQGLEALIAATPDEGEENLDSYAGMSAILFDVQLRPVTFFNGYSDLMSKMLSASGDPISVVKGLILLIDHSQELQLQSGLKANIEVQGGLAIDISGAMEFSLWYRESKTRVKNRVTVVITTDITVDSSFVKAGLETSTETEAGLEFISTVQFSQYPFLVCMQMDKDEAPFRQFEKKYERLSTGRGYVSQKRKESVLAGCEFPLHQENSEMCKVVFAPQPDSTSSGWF
T1 sequence (P07237 18-508 partner): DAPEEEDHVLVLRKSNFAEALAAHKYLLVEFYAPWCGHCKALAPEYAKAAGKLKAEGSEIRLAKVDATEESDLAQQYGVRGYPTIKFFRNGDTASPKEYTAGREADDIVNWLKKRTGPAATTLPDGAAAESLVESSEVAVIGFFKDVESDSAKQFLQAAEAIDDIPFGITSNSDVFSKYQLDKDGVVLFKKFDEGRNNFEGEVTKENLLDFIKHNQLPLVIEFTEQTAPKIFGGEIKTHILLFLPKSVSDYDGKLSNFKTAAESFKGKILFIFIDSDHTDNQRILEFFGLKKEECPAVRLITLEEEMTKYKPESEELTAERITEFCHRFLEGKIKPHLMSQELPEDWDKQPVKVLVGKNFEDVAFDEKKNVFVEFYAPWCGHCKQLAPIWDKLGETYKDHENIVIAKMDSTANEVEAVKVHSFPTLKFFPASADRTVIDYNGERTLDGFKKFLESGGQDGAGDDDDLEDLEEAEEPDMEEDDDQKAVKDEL

Row | Compound | IC50 [2] [nM] | other results
1 | CN(C)C(=O)c1cc(CCCC(=O)Oc2ccc(C#N)cc2)ccc1NC(=O)c1ccccc1-c1ccc(C(F)(F)F)cc1 [Compound 1-23, 4-{3-dimethylcarbamoyl-4-[(4′-trifluoromethylbiphenyl-2-carbonyl)amino]phenyl}butyric acid 4-cyanophenyl ester] | 10 to 100 | –
2 | COC(=O)c1ccc(OC(=O)CCCc2ccc(NC(=O)c3cccnc3-c3ccc(C(F)(F)F)cc3)c(C(=O)N(C)C)c2)cc1 [Compound 1-28, 4-[4-(3-dimethylcarbamoyl-4-{[2-(4-trifluoromethylphenyl)pyridine-3-carbonyl]amino}phenyl)butyryloxy]benzoic acid methyl ester] | < 10 | –
3 | CCc1cc(C(=O)OC)cc(Cl)c1OC(=O)CCCc1ccc(NC(=O)c2ccc(C)nc2-c2ccc(C(F)(F)F)cc2)c(C(=O)N(C)C)c1 [Compound 1-73, 3-chloro-4-[4-(3-dimethylcarbamoyl-4-{[6-methyl-2-(4-trifluoromethylphenyl)pyridine-3-carbonyl]amino}phenyl)butyryloxy]-5-ethylbenzoic acid methyl ester] | < 10 | –
4 | CN(C)C(=O)c1cc(CCCC(=O)Oc2ccc(C(=O)OCC(=O)OCc3ccccc3)cc2)ccc1NC(=O)c1ccccc1-c1ccc(C(F)(F)F)cc1 [Compound 1-78] | < 10 | –
5 | COC(=O)c1ccc(OC(=O)CCCc2ccc(NC(=O)c3ccc(C)nc3-c3ccc(C(F)(F)F)cc3)c(C(=O)N(C)C)c2)cn1 [Compound 1-32, 5-[4-(3-dimethylcarbamoyl-4-{[6-methyl-2-(4-trifluoromethylphenyl)pyridine-3-carbonyl]amino}phenyl)butyryloxy]pyridine-2-carboxylic acid methyl ester] | 100 to 1000 | –
6 | COC(=O)c1cc(Br)c(OC(=O)CCCc2ccc(NC(=O)c3ccc(C)nc3-c3ccc(C(F)(F)F)cc3)c(C(=O)N(C)C)c2)c(OC)c1 [Compound 1-50, 3-bromo-4-[4-(3-dimethylcarbamoyl-4-{[6-methyl-2-(4-trifluoromethylphenyl)pyridine-3-carbonyl]amino}phenyl)butyryloxy]-5-methoxybenzoic acid methyl ester] | < 10 | –
7 | 3-chloro-4-[4-(3-dimethylcarbamoyl-4-{[6-methyl-2-(4-trifluoromethylphenyl)pyridine-3-carbonyl]amino}phenyl)butyryloxy]-5-methoxybenzoic acid methyl ester sulfonate [Compound 1-56] | < 10 | –
8 | COc1cc(C(=O)OCCNC(C)=O)cc(Cl)c1OC(=O)CCCc1ccc(NC(=O)c2ccc(C)nc2-c2ccc(C(F)(F)F)cc2)c(C(=O)N(C)C)c1 [Compound 1-114, 3-chloro-4-[4-(3-dimethylcarbamoyl-4-{[6-methyl-2-(4-trifluoromethylphenyl)pyridine-3-carbonyl]amino}phenyl)butyryloxy]-5-methoxybenzoic acid 2-acetylaminoethyl ester] | < 10 | –
9 | Cc1noc(-c2ccc(OC(=O)CCCc3ccc(NC(=O)c4ccccc4-c4ccc(C(F)(F)F)cc4)c(C(=O)N(C)C)c3)cc2)n1 [Compound 1-2, 4-{3-dimethylcarbamoyl-4-[(4′-trifluoromethylbiphenyl-2-carbonyl)amino]phenyl}butyric acid 4-(3-methyl-[1,2,4]oxadiazol-5-yl)phenyl ester] | < 10 | –

Continued, in another order:

Row | IC50 [2] [nM] | Compound | other results
10 | < 10 | COC(=O)c1ccc(OC(=O)CCCc2ccc(NC(=O)c3ccccc3-c3ccc(C(F)(F)F)cc3)c(C(=O)N(C)C)c2)c(C)c1 [Compound 1-66, 4-[4-(3-dimethylcarbamoyl-4-{(4′-trifluoromethylbiphenyl-2-carbonyl)amino}phenyl)butyryloxy]-3-methylbenzoic acid methyl ester] | Buf. remaining rate (%/10 min) ([1]; 10 min): 101%; Buf. remaining rate (%/60 min) ([1]; 60 min): 103%; Remaining rate in human liver S9 (%/10 min) ([3]; 10 min): 3%; Remaining rate in human liver S9 (%/60 min) ([3]; 60 min): 0%; Remaining rate in human plasma (%/60 min) [4]: 8%
11 | < 10 | COC(=O)c1ccc(OC(=O)CCCc2ccc(NC(=O)c3ccccc3-c3ccc(C(F)(F)F)cc3)c(C(=O)N(C)C)c2)c(F)c1 [Compound 1-10, 4-(4-{3-dimethylcarbamoyl-4-[(4′-trifluoromethylbiphenyl-2-carbonyl)amino]phenyl}butyryloxy)-3-fluoro benzoic acid methyl ester] | –
12 | < 10 | CN(C)C(=O)c1cc(CCCC(=O)Oc2ccc(C(=O)OCc3cccnc3)cc2)ccc1NC(=O)c1ccccc1-c1ccc(C(F)(F)F)cc1 [Compound 1-83, 4-[4-(3-dimethylcarbamoyl-4-{(4′-trifluoromethylbiphenyl-2-carbonyl)amino}phenyl)butyryloxy]benzoic acid pyridin-3-ylmethyl ester] | –
13 | < 10 | COC(=O)c1ccc(OC(=O)CCCc2ccc(NC(=O)c3ccccc3-c3ccc(C(F)(F)F)cc3)c(C(=O)N3CCCC3)c2)cc1 [Compound 1-15, 4-(4-{3-(pyrrolidine-1-carbonyl)-4-[(4′-trifluoromethylbiphenyl-2-carbonyl)amino]phenyl}butyryloxy)benzoic acid methyl ester] | –
14 | < 10 | CC(C)OC(=O)COC(=O)c1ccc(OC(=O)CCCc2ccc(NC(=O)c3ccccc3-c3ccc(C(F)(F)F)cc3)c(C(=O)N(C)C)c2)cc1 [Compound 1-102] | –
15 | < 10 | CN(C)C(=O)c1cc(CCCC(=O)Oc2ccc(C(=O)OCc3ccccc3)cc2)ccc1NC(=O)c1ccccc1-c1ccc(C(F)(F)F)cc1 [Compound 1-24, 4-(4-{3-dimethylcarbamoyl-4-[(4′-trifluoromethylbiphenyl-2-carbonyl)amino]phenyl}butyryloxy)benzoic acid benzyl ester] | –
16 | < 10 | CN(C)C(=O)c1cc(CCCC(=O)Oc2ccc(C(=O)OCc3ccsc3)cc2)ccc1NC(=O)c1ccccc1-c1ccc(C(F)(F)F)cc1 [Compound 1-99, 4-[4-(3-dimethylcarbamoyl-4-{(4′-trifluoromethylbiphenyl-2-carbonyl)amino}phenyl)butyryloxy]benzoic acid thiophen-3-ylmethyl ester] | –
17 | < 10 | CCCOC(=O)c1ccc(OC(=O)CCCc2ccc(NC(=O)c3ccccc3-c3ccc(C(F)(F)F)cc3)c(C(=O)N(C)C)c2)cc1 [Compound 1-8, 4-(4-{3-dimethylcarbamoyl-4-[(4′-trifluoromethylbiphenyl-2-carbonyl)amino]phenyl}butyryloxy) benzoic acid propyl ester] | –
18 | < 10 | CN(C)C(=O)Cn1nnc(-c2ccc(OC(=O)CCCc3ccc(NC(=O)c4ccccc4-c4ccc(C(F)(F)F)cc4)c(C(=O)N(C)C)c3)cc2)n1 [Compound 1-105, 4-(3-dimethylcarbamoyl-4-{(4′-trifluoromethylbiphenyl-2-carbonyl)amino}phenyl)butyric acid 4-(2-dimethylcarbamoylmethyl-2H-tetrazol-5-yl)phenyl ester] | –
19 | < 10 | COc1ccc(COC(=O)c2ccc(OC(=O)CCCc3ccc(NC(=O)c4ccccc4-c4ccc(C(F)(F)F)cc4)c(C(=O)N(C)C)c3)cc2)cc1 [Compound 1-96, 4-[4-(3-dimethylcarbamoyl-4-{(4′-trifluoromethylbiphenyl-2-carbonyl)amino}phenyl)butyryloxy]benzoic acid 4-methoxybenzyl ester] | –
20 | < 10 | CC(OC(=O)c1ccc(OC(=O)CCCc2ccc(NC(=O)c3ccccc3-c3ccc(C(F)(F)F)cc3)c(C(=O)N(C)C)c2)cc1)c1ccccc1 (stereo not shown) [Compound 1-106, 4-[4-(3-dimethylcarbamoyl-4-{(4′-trifluoromethylbiphenyl-2-carbonyl)amino}phenyl)butyryloxy]benzoic acid 1-phenylethyl ester] | –

Source: patent US8101774B2, “Ester derivatives and medicinal use thereof” (Japan Tobacco Inc., priority 2004, dated 2012)
